Source: EP4691468A1, “PHARMACEUTICAL COMPOSITION FOR TREATING INFLAMMATORY BOWEL DISEASE” (EA Pharma Co., Ltd., priority 2023, dated 2024)
Converted amounts (≈) assume the structure as drawn. “And” between values parts separate entries of the source, which are not always exact repeats. Equal entries are not always repeated. Where two headings read alike, the source gives them in different places.

Legend:
[1] = PK Simulation Analysis 1 by superposition method (Phoenix WinNonlin NPS); parameters: species or system human
Text: The plasma concentration profile of Compound (2) on day 10 of repeated administration was predicted using the superposition method implemented in the Nonparametric Superposition (NPS) tool of the analysis software Phoenix WinNonlin, applying the single-dose results (Certara L.P.) (Fig. 4). Table 5: Predicted Plasma Concentration (ng/mL) of Compound (2) on Day 10 of Repeated Administration

[2] = PK Simulation Analysis 2 by superposition method (200 mg twice daily); parameters: species or system human; conditions: day 10 of repeated administration
Description: The plasma concentration of Compound (2) on day 10 of repeated administration at 200 mg twice daily (every 12 hours) was predicted using the superposition method implemented in the Nonparametric Superposition (NPS) tool of the analysis software Phoenix WinNonlin, applying the results of once-daily administration at 200 mg (Certara L.P.) (Fig. 6). Table 6: Predicted Plasma Concentration (ng/mL) of Compound (2) on Day 10 of Repeated Administration Twice Daily

MAdCAM-1 = assay: Ex vivo MAdCAM-1 binding inhibition rate (PD) of lymphocytes in collected blood, flow cytometry; assay type: cell-based, human
Description: The MAdCAM-1 binding rate of lymphocytes in plasma was measured using a validated measurement method using the obtained blood samples, and the MAdCAM-1 binding inhibition rate of lymphocytes in plasma was calculated using Excel. Specifically, 5 µL of an 80 mM MnCl2 solution was added to 90 µL of heparinized blood and incubated at room temperature for 10 minutes. A volume of 5 µL of 200 µg/mL recombinant human MAdCAM-1/Fc (R&D Systems) was added to make a total volume of 100 µL, and the mixture was incubated at room temperature for 30 minutes. Subsequently, 1900 µL of BD Phosflow Lyse/Fix Buffer 5X (BD Biosciences) was added, and hemolysis and fixation were performed at 37°C for 10 minutes. After centrifugation for 5 minutes, the supernatant was removed, and 2000 µL of RPMI-1640 medium supplemented with 10% inactivated fetal bovine serum (hereinafter referred to as medium) was added. After centrifugation for 5 minutes, the supernatant was removed and washed. After washing again with the medium, 50 µL of Brilliant Stain Buffer (BD Biosciences), 1.25 µL of MAdCAM-1 FITC (Hycult Biotech), 5 µL of CD4 PE (BD Biosciences), 2.5 µL of CD45RO APC (UCHL1) (BioLegend), 5 µL of CD3 BV421 (SK7) (BioLegend), and 2.5 µL of CD45 BV510 (HI30) (BioLegend) were added, and the mixture was incubated for 30 minutes. After washing with Stain Buffer (BSA) (BD Biosciences), the percentage of MAdCAM-1-positive cells among CD3-positive CD4-positive cells was measured using flow cytometry.
The percentage of MAdCAM-1-positive cells among CD3-positive CD4-positive cells was calculated by subtracting each measured value from the measured value when MAdCAM-1/Fc was not added as a control. […]
The MAdCAM-1 binding inhibition rate (PD) of lymphocytes in plasma was evaluated using collected blood, and the correlation with the plasma concentration (PK) of Compound (2) was plotted (Fig. 5).

[3] = for 24-Hour Post-Dose Trough Values of Compound (2) after Repeated Administration / Average Plasma Concentrations of Compound (2) on Day 10 of Repeated Administration: Compound (1) 400 mg once daily L-SEDDS
Description: (§1) A phase 1 clinical trial was conducted to evaluate the safety, tolerability, and pharmacokinetics of Compound (1) when orally administered to healthy adult males.
(§2) This clinical trial was a single-center, randomized, double-blind, placebo-controlled, single and multiple ascending dose study with the primary objective of evaluating the safety and tolerability of Compound (1) when orally administered to healthy adult males.
(§3) The subjects in each cohort consisted of 8 people, of which 6 were assigned to Compound (1) and 2 were assigned to placebo, and they were administered the drug.
(§4) Day 8, when repeated administration was started, corresponds to administration day 1 (Day 1), and day 17 corresponds to administration day 10 (Day 10).
(§5) The plasma concentration of Compound (2) was measured using a validated measurement method. Specifically, plasma was separated from collected blood and processed, and then the plasma concentration was measured by an LC/MS/MS apparatus.
(§6) For twice-daily administration of C-SEDDS, blood was further collected at 13, 14, 14.5, and 16 hours later to quantify Compound (2).

[4] = for 12-Hour Post-Dose Trough Values of Compound (2) after Repeated Administration / Average Plasma Concentrations of Compound (2) on Day 10 of Repeated Administration: Compound (1) 200 mg twice daily C-SEDDS
Description: as §1, §2, §3, §4, §5, §6

[5] = plasma concentration, MAdCAM-1-positive cells among CD3-positive CD4-positive cells, ex vivo blood of healthy adult males
[6] = Measured Value, Repeated, Once daily, 400/L-SEDDS, day 10
[7] = Measured Value, Repeated, Twice daily, 400(200×2)/C-SEDDS, day 10

SMILES: Cc1cc(=O)n(-c2ccc(C[C@H](NC(=O)c3cc(F)c(NS(=O)(=O)c4ccc(NC(=O)C(C)(C)C)cc4)cc3F)C(=O)O)cn2)c(=O)n1C [Compound (2)]
- estimated trough value on the 10th day of repeated administration ([1]; 50 mg, 2.5 times the predicted 20 mg value): 2.03 ng/mL
- Judgment Trough Value ([1]; estimated, repeated administration at 50 mg, 10th day): B (IC50 (1.9 ng/mL) or higher and less than IC90 (6.9 ng/mL))
- predicted trough value for 200 mg twice daily compared to measured trough value after 400 mg once daily [2]: about twice
- correlation of MAdCAM-1 binding inhibition rate (PD) with plasma concentration (PK) (MAdCAM-1; collected blood, Fig. 5): correlated
- IC50 (concentration that causes 50% binding inhibition) (MAdCAM-1; [5]): 1.9 ng/mL (≈ 2.72 nM)
- IC90 (concentration that causes 90% binding inhibition) (MAdCAM-1; [5]): 6.9 ng/mL (≈ 9.88 nM)
- 24-Hour Post-Dose Trough Values of Compound (2) after Repeated Administration ([3]; Day 1): 5.092 ng/mL
- 24-Hour Post-Dose Trough Values of Compound (2) after Repeated Administration ([3]; Day 2): 10.90 ng/mL
- 24-Hour Post-Dose Trough Values of Compound (2) after Repeated Administration ([3]; Day 3): 10.60 ng/mL
- 24-Hour Post-Dose Trough Values of Compound (2) after Repeated Administration ([3]; Day 4): 14.21 ng/mL
- 24-Hour Post-Dose Trough Values of Compound (2) after Repeated Administration ([3]; Day 5): 19.56 ng/mL
- 24-Hour Post-Dose Trough Values of Compound (2) after Repeated Administration ([3]; Day 6): 17.27 ng/mL
- 24-Hour Post-Dose Trough Values of Compound (2) after Repeated Administration ([3]; Day 7): 19.85 ng/mL
- 24-Hour Post-Dose Trough Values of Compound (2) after Repeated Administration ([3]; Day 8): 22.03 ng/mL
- 24-Hour Post-Dose Trough Values of Compound (2) after Repeated Administration ([3]; Day 9): 22.80 ng/mL
- 24-Hour Post-Dose Trough Values of Compound (2) after Repeated Administration ([3]; Day 10): 13.04 ng/mL
- Average Plasma Concentrations of Compound (2) on Day 10 of Repeated Administration ([3]; Day 10, Time 0.5 h): 23.82 ng/mL
- Average Plasma Concentrations of Compound (2) on Day 10 of Repeated Administration ([3]; Day 10, Time 1 h): 43.52 ng/mL
- Average Plasma Concentrations of Compound (2) on Day 10 of Repeated Administration ([3]; Day 10, Time 1.5 h): 44.71 ng/mL
- Average Plasma Concentrations of Compound (2) on Day 10 of Repeated Administration ([3]; Day 10, Time 2 h): 40.35 ng/mL
- Average Plasma Concentrations of Compound (2) on Day 10 of Repeated Administration ([3]; Day 10, Time 2.5 h): 34.19 ng/mL
- Average Plasma Concentrations of Compound (2) on Day 10 of Repeated Administration ([3]; Day 10, Time 3 h): 32.09 ng/mL
- Average Plasma Concentrations of Compound (2) on Day 10 of Repeated Administration ([3]; Day 10, Time 4 h): 28.31 ng/mL
- Average Plasma Concentrations of Compound (2) on Day 10 of Repeated Administration ([3]; Day 10, Time 5 h): 25.14 ng/mL
- Average Plasma Concentrations of Compound (2) on Day 10 of Repeated Administration ([3]; Day 10, Time 6 h): 17.77 ng/mL
- Average Plasma Concentrations of Compound (2) on Day 10 of Repeated Administration ([3]; Day 10, Time 7 h): 14.77 ng/mL
- Average Plasma Concentrations of Compound (2) on Day 10 of Repeated Administration ([3]; Day 10, Time 8 h): 13.57 ng/mL
- Average Plasma Concentrations of Compound (2) on Day 10 of Repeated Administration ([3]; Day 10, Time 12 h): 16.86 ng/mL
- Average Plasma Concentrations of Compound (2) on Day 10 of Repeated Administration ([3]; Day 10, Time 15 h): 11.33 ng/mL
- Average Plasma Concentrations of Compound (2) on Day 10 of Repeated Administration ([3]; Day 10, Time 21 h): 15.69 ng/mL
- Average Plasma Concentrations of Compound (2) on Day 10 of Repeated Administration ([3]; Day 10, Time 24 h): 13.04 ng/mL
- 24-Hour Post-Dose Trough Values of Compound (2) after Repeated Administration ([3]; Initial Value): 0.000 ng/mL
- increase of plasma concentration (trough value) after 24 hours on the 10th day of repeated administration ([3]; L-SEDDS 400 mg once daily, versus single-dose administration): more than threefold
- Judgment Trough Value [3, 6]: A (IC90 (6.9 ng/mL) or higher)
- Plasma Concentration Trough Value [3, 6]: 13.04 ng/mL and 13.0 ng/mL
- increase of plasma concentration (trough value) 12 hours after the second dose on the 10th day of repeated administration ([4]; C-SEDDS 200 mg twice daily, versus single-dose administration): about eightfold
- 12-Hour Post-Dose Trough Values of Compound (2) after Repeated Administration ([4]; Day 0.5): 2.025 ng/mL
- 12-Hour Post-Dose Trough Values of Compound (2) after Repeated Administration ([4]; Day 1): 3.653 ng/mL
- 12-Hour Post-Dose Trough Values of Compound (2) after Repeated Administration ([4]; Day 1.5): 4.250 ng/mL
- 12-Hour Post-Dose Trough Values of Compound (2) after Repeated Administration ([4]; Day 2): 6.021 ng/mL
- 12-Hour Post-Dose Trough Values of Compound (2) after Repeated Administration ([4]; Day 2.5): 7.700 ng/mL
- 12-Hour Post-Dose Trough Values of Compound (2) after Repeated Administration ([4]; Day 3): 7.026 ng/mL
- 12-Hour Post-Dose Trough Values of Compound (2) after Repeated Administration ([4]; Day 3.5): 7.381 ng/mL
- 12-Hour Post-Dose Trough Values of Compound (2) after Repeated Administration ([4]; Day 4): 9.303 ng/mL
- 12-Hour Post-Dose Trough Values of Compound (2) after Repeated Administration ([4]; Day 4.5): 9.167 ng/mL
- 12-Hour Post-Dose Trough Values of Compound (2) after Repeated Administration ([4]; Day 5): 9.985 ng/mL
- 12-Hour Post-Dose Trough Values of Compound (2) after Repeated Administration ([4]; Day 5.5): 12.59 ng/mL
- 12-Hour Post-Dose Trough Values of Compound (2) after Repeated Administration ([4]; Day 6): 11.20 ng/mL
- 12-Hour Post-Dose Trough Values of Compound (2) after Repeated Administration ([4]; Day 6.5): 10.81 ng/mL
- 12-Hour Post-Dose Trough Values of Compound (2) after Repeated Administration ([4]; Day 7): 11.82 ng/mL
- 12-Hour Post-Dose Trough Values of Compound (2) after Repeated Administration ([4]; Day 7.5): 10.83 ng/mL
- 12-Hour Post-Dose Trough Values of Compound (2) after Repeated Administration ([4]; Day 8): 14.16 ng/mL
- 12-Hour Post-Dose Trough Values of Compound (2) after Repeated Administration ([4]; Day 8.5): 12.12 ng/mL
- 12-Hour Post-Dose Trough Values of Compound (2) after Repeated Administration ([4]; Day 9): 15.06 ng/mL
- 12-Hour Post-Dose Trough Values of Compound (2) after Repeated Administration ([4]; Day 9.5): 12.20 ng/mL
- 12-Hour Post-Dose Trough Values of Compound (2) after Repeated Administration ([4]; Day 10): 13.69 ng/mL
- Average Plasma Concentrations of Compound (2) on Day 10 of Repeated Administration ([4]; Day 10, Time 0.5 h): 11.82 ng/mL
- Average Plasma Concentrations of Compound (2) on Day 10 of Repeated Administration ([4]; Day 10, Time 1 h): 10.63 ng/mL
- Average Plasma Concentrations of Compound (2) on Day 10 of Repeated Administration ([4]; Day 10, Time 1.5 h): 10.52 ng/mL
- Average Plasma Concentrations of Compound (2) on Day 10 of Repeated Administration ([4]; Day 10, Time 2 h): 14.42 ng/mL
- Average Plasma Concentrations of Compound (2) on Day 10 of Repeated Administration ([4]; Day 10, Time 2.5 h): 17.31 ng/mL
- Average Plasma Concentrations of Compound (2) on Day 10 of Repeated Administration ([4]; Day 10, Time 3 h): 18.02 ng/mL
- Average Plasma Concentrations of Compound (2) on Day 10 of Repeated Administration ([4]; Day 10, Time 4 h): 20.07 ng/mL
- Average Plasma Concentrations of Compound (2) on Day 10 of Repeated Administration ([4]; Day 10, Time 5 h): 20.59 ng/mL
- Average Plasma Concentrations of Compound (2) on Day 10 of Repeated Administration ([4]; Day 10, Time 6 h): 14.19 ng/mL
- Average Plasma Concentrations of Compound (2) on Day 10 of Repeated Administration ([4]; Day 10, Time 7 h): 12.13 ng/mL
- Average Plasma Concentrations of Compound (2) on Day 10 of Repeated Administration ([4]; Day 10, Time 8 h): 10.93 ng/mL
- Average Plasma Concentrations of Compound (2) on Day 10 of Repeated Administration ([4]; Day 10, Time 12 h): 12.20 ng/mL
- Average Plasma Concentrations of Compound (2) on Day 10 of Repeated Administration ([4]; Day 10, Time 13 h): 15.64 ng/mL
- Average Plasma Concentrations of Compound (2) on Day 10 of Repeated Administration ([4]; Day 10, Time 14 h): 25.37 ng/mL
- Average Plasma Concentrations of Compound (2) on Day 10 of Repeated Administration ([4]; Day 10, Time 14.5 h): 25.16 ng/mL
- Average Plasma Concentrations of Compound (2) on Day 10 of Repeated Administration ([4]; Day 10, Time 15 h): 22.99 ng/mL
- Average Plasma Concentrations of Compound (2) on Day 10 of Repeated Administration ([4]; Day 10, Time 16 h): 20.48 ng/mL
- Average Plasma Concentrations of Compound (2) on Day 10 of Repeated Administration ([4]; Day 10, Time 21 h): 13.24 ng/mL
- Average Plasma Concentrations of Compound (2) on Day 10 of Repeated Administration ([4]; Day 10, Time 24 h): 13.69 ng/mL
- 12-Hour Post-Dose Trough Values of Compound (2) after Repeated Administration ([4]; Initial Value): 0.000 ng/mL
- Judgment Trough Value [4, 7]: A (IC90 (6.9 ng/mL) or higher)
- Plasma Concentration Trough Value [4, 7]: 13.69 ng/mL and 13.7 ng/mL
